Measurements reported in PubChem BioAssay (NCI).
Several values for one entry are separate records, joined by “and”; a condition that tells them apart may be missing. Equal values may be shown once.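 These data come from cells grown in 96-well plates and exposed to compound for 48 hours at five concentrations. Abbreviation: GI50, concentration required for 50% inhibition of growth. TGI marks complete inhibition of growth.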

Assays:
Experiment in all cases: inhibition of tumour cell growth, NCI panel, 48 h
A498 renal = test system: A498 renal
CAKI-1 renal = test system: CAKI-1 renal
HS 578T breast = test system: HS 578T breast
HT29 colon = test system: HT29 colon
MCF7 breast = test system: MCF7 breast
NCI-H522 lung = test system: NCI-H522 lung
OVCAR-8 ovarian = test system: OVCAR-8 ovarian
PC-3 prostate = test system: PC-3 prostate
SF-268 CNS = test system: SF-268 CNS
SNB-75 CNS = test system: SNB-75 CNS

Structure (SMILES)	GI50 (A498 renal) [µM]	TGI (A498 renal)	GI50 (CAKI-1 renal)	TGI (CAKI-1 renal)	GI50 (HS 578T breast)	TGI (HS 578T breast)	GI50 (HT29 colon) [µM]	TGI (HT29 colon)	GI50 (MCF7 breast)	TGI (MCF7 breast)	GI50 (NCI-H522 lung) [µM]	TGI (NCI-H522 lung)	GI50 (OVCAR-8 ovarian)	TGI (OVCAR-8 ovarian)	GI50 (PC-3 prostate)	TGI (PC-3 prostate)	GI50 (SF-268 CNS)	TGI (SF-268 CNS)	GI50 (SNB-75 CNS) [µM]	TGI (SNB-75 CNS)
COc1cc2c(cc1OC)C(=O)/C(=C/c1cccc(OCC(=O)c3ccccc3)c1)C2	21.7	> 100 µM	12.7 µM	79.3 µM	13.1 µM	75.2 µM	12.9	> 100 µM	5.83 µM	> 100 µM	4.6	50.5 µM	5.04 µM	> 100 µM	5.11 µM	> 100 µM	15.3 µM	63.3 µM	12	37.8 µM
O=C(Oc1ccc(Cl)cc1Cl)c1ccccc1Nc1ccnc(C(F)(F)F)c1	21.5	37.3 µM	2.1 µM	4.14 µM	24.9 µM	73.9 µM			3.61 µM	17.2 µM	4.61	36 µM	4.79 µM	30.8 µM	8.24 µM	25.5 µM	3.11 µM	13.6 µM		
COc1cc([C@H]2c3cc4c(cc3O[C@@]3(O)COC(=O)[C@@H]23)OCO4)cc(OC)c1OC		> 100 µM		> 100 µM		> 100 µM		> 100 µM		> 100 µM		> 100 µM		> 100 µM		> 100 µM		> 100 µM		> 100 µM
O=[N+]([O-])c1ccc(C(c2c[nH]c3ccccc23)c2c[nH]c3ccccc23)cc1		30.1 µM				51.1 µM		31.8 µM		7.4 µM				33.2 µM		28.4 µM		22.5 µM		18.5 µM
O=C(CN1CCN(c2ncccn2)CC1)Nc1ccc(Cl)cc1C(=O)c1ccccc1Cl	> 100	> 100 µM	> 100 µM	> 100 µM	83.6 µM	> 100 µM	63.6	> 100 µM	83.3 µM	> 100 µM	46.6	> 100 µM	> 100 µM	> 100 µM	9.47 µM	> 100 µM	> 100 µM	> 100 µM	54.9	> 100 µM
CN1CC[C@@H](c2c(O)cc(O)c3c(=O)cc(-c4ccccc4Cl)oc23)[C@@H](O)C1	0.0604	0.181 µM and 1.13 µM		> 39.6 µM	0.0675 µM and 0.11 µM and 0.0213 µM		0.178	24.8 µM	0.0629 µM and 0.046 µM	> 77.4 µM		0.222 µM and 0.319 µM			0.0655 µM and 0.0735 µM		0.0577 µM and 0.0288 µM		0.0975	0.25 µM and 0.0894 µM
COc1cc(C2C=C(c3cccc(NC(C)=O)c3)Nc3ncnn32)cc(OC)c1OC (stereo unspecified)	0.242	4.67 µM	0.573 µM	> 100 µM	0.153 µM	0.413 µM	1.38	> 100 µM	0.317 µM	> 100 µM	1.49	> 100 µM	0.327 µM	> 100 µM	1.13 µM	> 100 µM	0.675 µM	> 100 µM	4.14	> 100 µM
N#CCC1COc2ccccc2O1 (stereo unspecified)				> 10 µM		> 10 µM		> 10 µM		> 10 µM		> 10 µM		> 10 µM		> 10 µM		> 10 µM		> 10 µM
COc1ccc(C(=O)/C(Br)=C/C(=O)O)cc1	58.3	192 µM and 77.3 µM		148 µM and 154 µM	43.1 µM and 30.9 µM	649 µM and 399 µM	59.4	658 µM and 491 µM	7.41 µM	44.5 µM and 59.9 µM	13.3	50.4 µM and 22.9 µM		326 µM	74.5 µM	159 µM and 257 µM	27.3 µM	202 µM and 225 µM		145 µM and 186 µM
CCC[CH2][Sn-]([CH2]CCC)([CH2]CCC)[O]c1cc(Cl)c(Cl)cc1Cl	0.22	0.609 µM			0.00467 µM	0.212 µM	0.162	0.404 µM	0.237 µM	0.887 µM			0.221 µM	0.557 µM	0.207 µM	0.458 µM	0.229 µM	1.05 µM	0.231	1.14 µM
O=C(NNc1nc(Cl)nc(N2CCN(C(c3ccccc3)c3ccccc3)CC2)n1)c1ccccc1	3.55	18.8 µM	1.68 µM	3.1 µM	1.94 µM	4.8 µM	1.92	4.07 µM	6.44 µM	> 100 µM			1.99 µM	4.67 µM	1.83 µM	3.81 µM	1.73 µM	3.33 µM	1.43	2.75 µM
O=C(Nc1ccc(N2CCNCC2)cc1)c1[nH]ncc1Nc1ncnc2sc3c(c12)CCC3	0.188	1.58 µM	0.148 µM	1.6 µM	0.0994 µM	2.08 µM			0.166 µM	1.3 µM			0.36 µM	1.84 µM	0.179 µM	1.49 µM	0.89 µM	2.76 µM	0.0657	1.59 µM
CCOC(=O)c1ccc(NC(=O)N2CC(C)OC(C)C2)cc1 (stereo unspecified)	> 100	> 100 µM	> 100 µM	> 100 µM	> 100 µM	> 100 µM	> 100	> 100 µM	> 100 µM	> 100 µM	> 100	> 100 µM	> 100 µM	> 100 µM	> 100 µM	> 100 µM	> 100 µM	> 100 µM	> 100	> 100 µM
COc1ccc2c(c1)/C(=C\c1c(C)nc3sc(C)cn13)C(=O)N2C			1.33 µM	4.33 µM	1.83 µM	5.4 µM	3.27	19.2 µM	3.29 µM	35.4 µM	2.54	8.44 µM	6.14 µM	> 100 µM	6.9 µM	62.4 µM	4.62 µM	39 µM	5.88	51.2 µM
C=C1C(=O)O[C@H]2[C@H]1CC/C(COC(=O)c1cc3cc(F)ccc3[nH]1)=C\CC[C@@]1(C)O[C@@H]21	3.35	8.96 µM	1.2 µM	2.62 µM	2.95 µM	18.8 µM	1.13	3.14 µM	1.02 µM	3.75 µM	1.66	3.38 µM	2.17 µM	6.67 µM	1.7 µM	3.44 µM	1.62 µM	3.3 µM	11.1	23.9 µM
COc1cc(/C(C#N)=C/c2ccc3c(c2OC)OCO3)cc2c1OCO2	0.051	0.785 µM	0.0933 µM	> 100 µM	0.0448 µM	0.4 µM	0.0379	1.04 µM	0.0482 µM	> 100 µM	0.0324	0.283 µM	0.243 µM	> 60.9 µM	0.0967 µM	> 78.4 µM	0.0969 µM	15.8 µM	0.0878	3.42 µM
Cc1ncc(CN=Cc2ccc(Cl)cc2)c(N)n1		> 100 µM		> 100 µM		> 100 µM		> 100 µM		> 100 µM		> 100 µM		> 100 µM		> 100 µM		> 100 µM		> 100 µM
CS(=O)(=O)CCNCc1nc(-c2ccc3ncnc(Nc4ccc(F)c(Cl)c4)c3c2)cs1	3.32	20.5 µM	1.47 µM	> 25 µM	15.9 µM	> 25 µM	16.5	> 25 µM	> 23.3 µM	> 25 µM	3.34	> 25 µM	14.4 µM	> 25 µM	14.7 µM	> 25 µM	> 17.9 µM	> 25 µM	> 18.3	> 25 µM
COc1ccc2nc(N/N=C(\C)c3ccccn3)cc(C)c2c1	0.812	7.02 µM	0.271 µM	1.17 µM	1.76 µM	9.39 µM	0.116		0.288 µM	1.07 µM	0.292	1.88 µM	0.286 µM	2.53 µM	0.433 µM	5.68 µM	0.228 µM	1.46 µM	1.82	7.49 µM
Cc1cc(-c2ncc(CC(=O)Nc3ccc(-c4cnccn4)cn3)cc2C)ccn1	2.8	65.5 µM	17.1 µM	> 100 µM	26 µM	> 100 µM	57.8	> 100 µM	19.1 µM	> 100 µM	22.7	> 100 µM	25.6 µM	> 100 µM	28.2 µM	> 100 µM	96 µM	> 100 µM	13.8	> 100 µM
O=C1NCc2ccc3c(-c4cccc(Cl)c4)c[nH]c3c21	0.058	0.671 µM	0.205 µM	> 50 µM	0.182 µM	> 50 µM	0.18	> 50 µM	0.177 µM	> 50 µM	0.225	> 39 µM	0.503 µM	> 50 µM	0.281 µM	> 50 µM	0.5 µM	> 50 µM		
COc1ccc2c(c1)[nH]c(=O)c1c3cc(C)c(C)cc3cn21	< 0.01	< 0.0295 µM	< 0.01 µM	0.0102 µM	< 0.01 µM		< 0.01		0.0927 µM	1.16 µM	< 0.0115	< 0.0275 µM	< 0.0179 µM	1.48 µM	< 0.01 µM	1.58 µM	< 0.01 µM	1.45 µM	< 0.01	4.37 µM
N#Cc1c(-c2nc3ccccc3s2)c(=O)oc2cc(O)ccc12		> 100 µM		85.6 µM		> 100 µM		> 100 µM		> 100 µM		> 100 µM		> 100 µM		> 100 µM		> 100 µM		> 100 µM
Cc1c2c(nn1-c1ccc(S(=O)(=O)NC(=S)Nc3ccccc3)cc1)-c1ccccc1CC2			1.85 µM	36.2 µM	44.6 µM	> 50 µM	> 50	> 50 µM	11.5 µM	34.3 µM	21.5	> 50 µM	> 50 µM	> 50 µM	39.9 µM	> 50 µM	18.7 µM	> 50 µM	> 50	> 50 µM
CN(C)c1cccc2c(S(=O)(=O)N[C@H]3CC[C@H]4[C@@H]5CCc6cc(O)ccc6[C@H]5CC[C@]34C)cccc12	1.75	4 µM	2.05 µM	7.43 µM	2.86 µM	11.3 µM	2.5	5.45 µM	2.59 µM	> 100 µM			3.3 µM	15.9 µM	2.36 µM	> 100 µM	3.03 µM	15 µM	1.75	9.52 µM
N#Cc1c(Sc2ccccc2N)cccc1Sc1ccccc1N			60.8 µM		22.5 µM		63.4		27.9 µM		51.7		53.8 µM				38.4 µM		2.24	14.5 µM
N#Cc1cn(C2OC(CO)C(O)C2O)c2ncnc(N)c12 (stereo unspecified)	0.045	1.51 µM and 0.634 µM	0.0705 µM and 0.045 µM and < 0.01 µM			1.33 µM	< 0.01		0.0251 µM and 0.045 µM and < 0.0169 µM		0.0293		0.0469 µM and 0.045 µM	0.889 µM and 0.178 µM			< 0.01 µM		0.232	
COc1cc(C2CC(c3ccc(C)cc3)=NN2C=O)ccc1Oc1ccnc2cc(Cl)ccc12 (stereo unspecified)	5.73	23.1 µM	> 50 µM	> 50 µM	1.82 µM	> 50 µM	> 50	> 50 µM	> 50 µM	> 50 µM	2.72	> 50 µM			> 50 µM	> 50 µM	11.3 µM	> 50 µM	1.13	6.92 µM
N=C1C(c2nc(-c3ccc(Br)cc3)cs2)=C(O)CN1Cc1cccnc1	1.9	5.23 µM	35 µM	> 100 µM		2.86 µM	13.4	> 100 µM	9.76 µM	> 100 µM			28.8 µM	> 100 µM	44.3 µM	> 100 µM	31.6 µM	> 100 µM		22.9 µM
